Laboratory results published in PubChem BioAssay (NCI).
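All cell lines were grown in 96-well plates and treated with compound for 48 hours. The concentration for full growth arrest is given as TGI.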

Key:
Test in all cases: DTP human tumour cell line panel, 48 h
EKVX NSCLC = tested on: EKVX NSCLC
IGROV1 ovarian = tested on: IGROV1 ovarian
OVCAR-3 ovarian = tested on: OVCAR-3 ovarian
UO-31 renal = tested on: UO-31 renal
MOLT-4 leukemia = tested on: MOLT-4 leukemia
HCT-15 colon = tested on: HCT-15 colon
PC-3 prostate = tested on: PC-3 prostate
SK-MEL-2 melanoma = tested on: SK-MEL-2 melanoma
SN12C renal = tested on: SN12C renal
NCI/ADR-RES ovarian = tested on: NCI/ADR-RES ovarian
SNB-75 CNS = tested on: SNB-75 CNS
RXF 393 renal = tested on: RXF 393 renal
UACC-62 melanoma = tested on: UACC-62 melanoma
HS 578T breast = tested on: HS 578T breast
LOX IMVI melanoma = tested on: LOX IMVI melanoma
SF-268 CNS = tested on: SF-268 CNS
SNB-19 CNS = tested on: SNB-19 CNS
U251 CNS = tested on: U251 CNS
A498 renal = tested on: A498 renal
KM12 colon = tested on: KM12 colon
TK-10 renal = tested on: TK-10 renal
HOP-92 NSCLC = tested on: HOP-92 NSCLC
A549 NSCLC = tested on: A549 NSCLC
DU-145 prostate = tested on: DU-145 prostate
SK-MEL-28 melanoma = tested on: SK-MEL-28 melanoma
MDA-N = tested on: MDA-N
NCI-H226 lung = tested on: NCI-H226 lung
NCI-H522 lung = tested on: NCI-H522 lung
COLO 205 colon = tested on: COLO 205 colon
NCI-H23 lung = tested on: NCI-H23 lung
786-0 renal = tested on: 786-0 renal
SK-OV-3 ovarian = tested on: SK-OV-3 ovarian
SR leukemia = tested on: SR leukemia
OVCAR-4 ovarian = tested on: OVCAR-4 ovarian
HCC-2998 colon = tested on: HCC-2998 colon
M14 melanoma = tested on: M14 melanoma
OVCAR-8 ovarian = tested on: OVCAR-8 ovarian
SF-295 CNS = tested on: SF-295 CNS
UACC-257 melanoma = tested on: UACC-257 melanoma
HL-60(TB) leukemia = tested on: HL-60(TB) leukemia
K-562 leukemia = tested on: K-562 leukemia
ACHN renal = tested on: ACHN renal
MCF7 breast = tested on: MCF7 breast
HOP-62 NSCLC = tested on: HOP-62 NSCLC
OVCAR-5 ovarian = tested on: OVCAR-5 ovarian
MDA-MB-435 = tested on: MDA-MB-435
CAKI-1 renal = tested on: CAKI-1 renal
HCT-116 colon = tested on: HCT-116 colon
RPMI-8226 leukemia = tested on: RPMI-8226 leukemia
MDA-MB-231 breast = tested on: MDA-MB-231 breast
MALME-3M melanoma = tested on: MALME-3M melanoma
HT29 colon = tested on: HT29 colon
SW-620 colon = tested on: SW-620 colon
SF-539 CNS = tested on: SF-539 CNS
CCRF-CEM leukemia = tested on: CCRF-CEM leukemia
NCI-H460 lung = tested on: NCI-H460 lung
SK-MEL-5 melanoma = tested on: SK-MEL-5 melanoma

`C[n+]1c(-c2ccccc2)cc2/c(=C\c3ccccc3)c3ccccc3n21` was tested, and the TGI (EKVX NSCLC) was 9.64 µM, the TGI (IGROV1 ovarian) was 2.64 µM and the TGI (OVCAR-3 ovarian) was 3.04 µM. The TGI (UO-31 renal) was 7.81 µM, the TGI (MOLT-4 leukemia) was 7.78 µM and the TGI (HCT-15 colon) was 11.5 µM. The TGI (PC-3 prostate) was 3.69 µM, the TGI (SK-MEL-2 melanoma) was 2.26 µM and the TGI (SN12C renal) was 3.32 µM. It also gave a TGI (NCI/ADR-RES ovarian) of 71.1 µM, a TGI (SNB-75 CNS) of 2.05 µM and a TGI (RXF 393 renal) of 4.07 µM. For the same compound, the TGI (UACC-62 melanoma) was 3.24 µM, the TGI (HS 578T breast) was 0.576 µM and the TGI (LOX IMVI melanoma) was 2.88 µM. The TGI (SF-268 CNS) was 2.92 µM, the TGI (SNB-19 CNS) was 24 µM and the TGI (U251 CNS) was 1.67 µM. For the same compound, the TGI (A498 renal) was 23.1 µM, the TGI (KM12 colon) was 2.18 µM and the TGI (TK-10 renal) was 14.2 µM. It also gave a TGI (HOP-92 NSCLC) of 4.93 µM, a TGI (A549 NSCLC) of over 36.3 µM and a TGI (DU-145 prostate) of 10.6 µM. The TGI (SK-MEL-28 melanoma) was 2.73 µM, the TGI (MDA-N) was 3.42 µM and the TGI (NCI-H226 lung) was 2.01 µM. The TGI (NCI-H522 lung) was 2.01 µM, the TGI (COLO 205 colon) was 1.8 µM and the TGI (NCI-H23 lung) was 7.2 µM. The TGI (786-0 renal) was 2.77 µM, the TGI (SK-OV-3 ovarian) was 17.4 µM and the TGI (SR leukemia) was over 21.4 µM. The TGI (OVCAR-4 ovarian) was 17.2 µM, the TGI (HCC-2998 colon) was 14.2 µM and the TGI (M14 melanoma) was 4.19 µM. It also gave a TGI (OVCAR-8 ovarian) of 4.19 µM, a TGI (SF-295 CNS) of 76 µM and a TGI (UACC-257 melanoma) of 3.98 µM. For the same compound, the TGI (HL-60(TB) leukemia) was 0.302 µM, the TGI (K-562 leukemia) was over 100 µM and the TGI (ACHN renal) was 11.8 µM. It also gave a TGI (MCF7 breast) of over 32.2 µM, a TGI (HOP-62 NSCLC) of 6.9 µM and a TGI (OVCAR-5 ovarian) of 13.4 µM. For the same compound, the TGI (MDA-MB-435) was 2.45 µM, the TGI (CAKI-1 renal) was 11.4 µM and the TGI (HCT-116 colon) was 4.91 µM. It also gave a TGI (RPMI-8226 leukemia) of over 100 µM, a TGI (MDA-MB-231 breast) of 3.55 µM and a TGI (MALME-3M melanoma) of 2.93 µM. For the same compound, the TGI (HT29 colon) was 3.22 µM and the TGI (SW-620 colon) was 3.47 µM.

`O=[N+]([O-])c1cccnc1NCC1(CO)CCCC1` gave a TGI (EKVX NSCLC) of 76.9 µM, a TGI (IGROV1 ovarian) of 38.7 µM and a TGI (OVCAR-3 ovarian) of 46 µM. It also gave a TGI (MOLT-4 leukemia) of 40.5 µM, a TGI (HCT-15 colon) of 37.7 µM and a TGI (PC-3 prostate) of 37.8 µM. The TGI (SN12C renal) was 53 µM, the TGI (NCI/ADR-RES ovarian) was 49 µM and the TGI (SNB-75 CNS) was 34.9 µM. The TGI (SF-539 CNS) was 49.7 µM, the TGI (HS 578T breast) was 54 µM and the TGI (LOX IMVI melanoma) was 30.3 µM. For the same compound, the TGI (SF-268 CNS) was 70.7 µM, the TGI (SNB-19 CNS) was over 100 µM and the TGI (U251 CNS) was 31.2 µM. For the same compound, the TGI (A498 renal) was over 100 µM, the TGI (TK-10 renal) was 79.3 µM and the TGI (HOP-92 NSCLC) was 54.1 µM. For the same compound, the TGI (A549 NSCLC) was over 100 µM, the TGI (DU-145 prostate) was over 100 µM and the TGI (SK-MEL-28 melanoma) was 51.3 µM. For the same compound, the TGI (MDA-N) was 42.3 µM, the TGI (NCI-H226 lung) was 68.4 µM and the TGI (NCI-H522 lung) was 45.9 µM. For the same compound, the TGI (NCI-H23 lung) was over 100 µM, the TGI (786-0 renal) was 80.1 µM and the TGI (SR leukemia) was 64.2 µM. The TGI (OVCAR-4 ovarian) was over 100 µM, the TGI (CCRF-CEM leukemia) was over 100 µM and the TGI (HCC-2998 colon) was 32.8 µM. For the same compound, the TGI (OVCAR-8 ovarian) was 50.7 µM, the TGI (SF-295 CNS) was 56.2 µM and the TGI (UACC-257 melanoma) was 44.3 µM. For the same compound, the TGI (NCI-H460 lung) was 47.6 µM, the TGI (HL-60(TB) leukemia) was 50.3 µM and the TGI (K-562 leukemia) was 53.2 µM. The TGI (ACHN renal) was 70.1 µM, the TGI (MCF7 breast) was over 100 µM and the TGI (HOP-62 NSCLC) was over 100 µM. For the same compound, the TGI (OVCAR-5 ovarian) was 87.1 µM, the TGI (MDA-MB-435) was 44.1 µM and the TGI (HCT-116 colon) was 67 µM. For the same compound, the TGI (RPMI-8226 leukemia) was 59.1 µM, the TGI (MALME-3M melanoma) was 37.5 µM and the TGI (SK-MEL-5 melanoma) was 30.9 µM. The TGI (HT29 colon) was 34.8 µM and the TGI (SW-620 colon) was 54.4 µM.
